Measured values as given in patent US10995101B2, “2-oxo-thiazole derivatives as A2A inhibitors and compounds for use in the treatment of cancers” (iTeos Therapeutics SA, priority 2017, dated 2021).

Biological target: A2A receptor (Homo sapiens, UniProt P29274)
Experiment: Inhibition of cAMP production in HEK cells
Format: cell-based
Conditions: HEK-293 cells with A2A receptor

Chain of A2A receptor (P29274 whole entry): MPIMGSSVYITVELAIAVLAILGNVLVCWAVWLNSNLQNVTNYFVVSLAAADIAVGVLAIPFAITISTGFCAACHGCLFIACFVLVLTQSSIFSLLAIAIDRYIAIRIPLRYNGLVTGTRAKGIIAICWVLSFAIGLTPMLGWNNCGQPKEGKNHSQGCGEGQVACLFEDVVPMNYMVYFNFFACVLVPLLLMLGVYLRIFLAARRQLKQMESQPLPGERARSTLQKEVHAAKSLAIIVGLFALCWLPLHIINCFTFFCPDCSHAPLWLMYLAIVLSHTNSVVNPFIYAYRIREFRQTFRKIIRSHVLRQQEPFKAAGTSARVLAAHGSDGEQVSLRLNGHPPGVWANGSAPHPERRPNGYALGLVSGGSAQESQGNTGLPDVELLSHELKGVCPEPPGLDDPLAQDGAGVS

## NC(=O)COc1cc(N2CCN(CCn3c(=O)sc4c3nc(N)n3nc(-c5ccco5)nc43)CC2)c(F)cc1F [Compound 4, 2-(5-(4-(2-(5-amino-8-(furan-2-yl)-2-oxothiazolo[5,4-e][1,2,4]triazolo [1,5-c]pyrimidin-3(2H)-yl)ethyl)piperazin-1-yl)-2,4-difluorophenoxy)acetamide]
IC50 (nM) (3 nM NECA as agonist, 0.1% BSA), 3 nM NECA as agonist, 0.1% BSA
  IC50: 0.5 nM
IC50 (nM) (5 nM NECA as agonist, 2% HSA), 5 nM NECA as agonist, 2% HSA
  IC50: 2 nM
IC50 (nM) (5 μM Adenosine as agonist, 2.0% HSA), 5 μM Adenosine as agonist, 2.0% HSA
  IC50: 49 nM
